The target of assay [1] is Sodium channel protein type 9 subunit alpha (Homo sapiens, UniProt Q15858). Put plainly: Inhibition of human Nav1.7 expressed in HEK293 cells at holding potential of -125 mV […] by patchxpress-based electrophysiology assay. The format is cell-based.
The target in assay [2] is Sodium channel protein type 4 subunit alpha (Homo sapiens, UniProt P35499). The experiment in a line: Inhibition of human Nav1.4 expressed in HEK293 cells at holding potential of -125 mV […] by patchxpress-based electrophysiology assay. The format is cell-based.
Chain of Sodium channel protein type 4 subunit alpha (P35499 whole entry): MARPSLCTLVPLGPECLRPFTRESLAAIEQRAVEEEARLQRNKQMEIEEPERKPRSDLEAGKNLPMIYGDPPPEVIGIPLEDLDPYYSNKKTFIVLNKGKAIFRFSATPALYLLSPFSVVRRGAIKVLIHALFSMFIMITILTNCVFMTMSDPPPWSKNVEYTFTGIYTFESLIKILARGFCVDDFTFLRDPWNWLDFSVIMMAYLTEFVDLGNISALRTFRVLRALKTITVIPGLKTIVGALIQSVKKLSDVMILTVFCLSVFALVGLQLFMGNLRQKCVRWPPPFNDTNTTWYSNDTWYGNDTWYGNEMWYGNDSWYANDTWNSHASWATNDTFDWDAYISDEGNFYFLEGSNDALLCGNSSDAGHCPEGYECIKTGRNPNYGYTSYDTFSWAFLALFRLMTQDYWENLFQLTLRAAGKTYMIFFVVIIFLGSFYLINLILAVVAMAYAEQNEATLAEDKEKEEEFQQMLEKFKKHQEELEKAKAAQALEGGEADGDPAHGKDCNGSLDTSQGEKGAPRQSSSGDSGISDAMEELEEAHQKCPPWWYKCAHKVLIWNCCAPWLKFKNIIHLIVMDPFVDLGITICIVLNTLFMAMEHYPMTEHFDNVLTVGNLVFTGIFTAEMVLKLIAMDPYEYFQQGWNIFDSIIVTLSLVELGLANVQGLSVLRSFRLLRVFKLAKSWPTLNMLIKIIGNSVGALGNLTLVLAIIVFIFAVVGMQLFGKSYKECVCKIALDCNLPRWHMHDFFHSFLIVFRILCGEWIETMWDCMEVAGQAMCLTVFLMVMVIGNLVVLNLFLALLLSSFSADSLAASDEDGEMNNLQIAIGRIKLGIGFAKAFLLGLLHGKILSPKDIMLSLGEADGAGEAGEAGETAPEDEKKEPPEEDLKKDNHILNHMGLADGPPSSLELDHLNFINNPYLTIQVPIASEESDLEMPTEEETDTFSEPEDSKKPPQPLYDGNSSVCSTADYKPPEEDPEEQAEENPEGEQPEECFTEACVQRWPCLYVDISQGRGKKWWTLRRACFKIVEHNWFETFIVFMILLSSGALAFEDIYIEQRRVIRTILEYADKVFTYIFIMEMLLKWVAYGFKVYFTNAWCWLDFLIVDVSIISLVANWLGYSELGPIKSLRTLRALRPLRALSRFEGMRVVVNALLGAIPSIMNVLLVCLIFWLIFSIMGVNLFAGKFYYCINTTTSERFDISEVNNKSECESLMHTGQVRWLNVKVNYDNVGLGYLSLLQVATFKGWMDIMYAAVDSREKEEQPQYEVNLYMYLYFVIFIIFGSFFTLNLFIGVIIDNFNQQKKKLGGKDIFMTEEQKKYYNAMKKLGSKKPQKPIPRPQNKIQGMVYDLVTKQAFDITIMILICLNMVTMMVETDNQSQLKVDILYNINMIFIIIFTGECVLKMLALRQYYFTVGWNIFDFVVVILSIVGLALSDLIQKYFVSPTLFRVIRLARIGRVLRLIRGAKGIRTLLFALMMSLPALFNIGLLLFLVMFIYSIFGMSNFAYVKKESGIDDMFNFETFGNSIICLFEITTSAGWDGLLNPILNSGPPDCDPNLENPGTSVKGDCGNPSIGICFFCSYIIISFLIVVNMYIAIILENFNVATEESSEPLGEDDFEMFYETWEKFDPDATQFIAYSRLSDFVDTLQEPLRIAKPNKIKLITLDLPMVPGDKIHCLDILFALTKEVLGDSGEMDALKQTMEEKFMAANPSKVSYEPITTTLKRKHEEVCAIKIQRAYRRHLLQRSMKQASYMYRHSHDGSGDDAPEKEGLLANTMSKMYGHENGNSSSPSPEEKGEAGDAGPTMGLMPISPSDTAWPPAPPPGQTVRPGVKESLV

In general, IC50 refers to the concentration that gives 50% inhibition. Read a low IC50 as greater potency in that assay.

The structures appear in SMILES notation.

Chain of Sodium channel protein type 9 subunit alpha (Q15858 whole entry): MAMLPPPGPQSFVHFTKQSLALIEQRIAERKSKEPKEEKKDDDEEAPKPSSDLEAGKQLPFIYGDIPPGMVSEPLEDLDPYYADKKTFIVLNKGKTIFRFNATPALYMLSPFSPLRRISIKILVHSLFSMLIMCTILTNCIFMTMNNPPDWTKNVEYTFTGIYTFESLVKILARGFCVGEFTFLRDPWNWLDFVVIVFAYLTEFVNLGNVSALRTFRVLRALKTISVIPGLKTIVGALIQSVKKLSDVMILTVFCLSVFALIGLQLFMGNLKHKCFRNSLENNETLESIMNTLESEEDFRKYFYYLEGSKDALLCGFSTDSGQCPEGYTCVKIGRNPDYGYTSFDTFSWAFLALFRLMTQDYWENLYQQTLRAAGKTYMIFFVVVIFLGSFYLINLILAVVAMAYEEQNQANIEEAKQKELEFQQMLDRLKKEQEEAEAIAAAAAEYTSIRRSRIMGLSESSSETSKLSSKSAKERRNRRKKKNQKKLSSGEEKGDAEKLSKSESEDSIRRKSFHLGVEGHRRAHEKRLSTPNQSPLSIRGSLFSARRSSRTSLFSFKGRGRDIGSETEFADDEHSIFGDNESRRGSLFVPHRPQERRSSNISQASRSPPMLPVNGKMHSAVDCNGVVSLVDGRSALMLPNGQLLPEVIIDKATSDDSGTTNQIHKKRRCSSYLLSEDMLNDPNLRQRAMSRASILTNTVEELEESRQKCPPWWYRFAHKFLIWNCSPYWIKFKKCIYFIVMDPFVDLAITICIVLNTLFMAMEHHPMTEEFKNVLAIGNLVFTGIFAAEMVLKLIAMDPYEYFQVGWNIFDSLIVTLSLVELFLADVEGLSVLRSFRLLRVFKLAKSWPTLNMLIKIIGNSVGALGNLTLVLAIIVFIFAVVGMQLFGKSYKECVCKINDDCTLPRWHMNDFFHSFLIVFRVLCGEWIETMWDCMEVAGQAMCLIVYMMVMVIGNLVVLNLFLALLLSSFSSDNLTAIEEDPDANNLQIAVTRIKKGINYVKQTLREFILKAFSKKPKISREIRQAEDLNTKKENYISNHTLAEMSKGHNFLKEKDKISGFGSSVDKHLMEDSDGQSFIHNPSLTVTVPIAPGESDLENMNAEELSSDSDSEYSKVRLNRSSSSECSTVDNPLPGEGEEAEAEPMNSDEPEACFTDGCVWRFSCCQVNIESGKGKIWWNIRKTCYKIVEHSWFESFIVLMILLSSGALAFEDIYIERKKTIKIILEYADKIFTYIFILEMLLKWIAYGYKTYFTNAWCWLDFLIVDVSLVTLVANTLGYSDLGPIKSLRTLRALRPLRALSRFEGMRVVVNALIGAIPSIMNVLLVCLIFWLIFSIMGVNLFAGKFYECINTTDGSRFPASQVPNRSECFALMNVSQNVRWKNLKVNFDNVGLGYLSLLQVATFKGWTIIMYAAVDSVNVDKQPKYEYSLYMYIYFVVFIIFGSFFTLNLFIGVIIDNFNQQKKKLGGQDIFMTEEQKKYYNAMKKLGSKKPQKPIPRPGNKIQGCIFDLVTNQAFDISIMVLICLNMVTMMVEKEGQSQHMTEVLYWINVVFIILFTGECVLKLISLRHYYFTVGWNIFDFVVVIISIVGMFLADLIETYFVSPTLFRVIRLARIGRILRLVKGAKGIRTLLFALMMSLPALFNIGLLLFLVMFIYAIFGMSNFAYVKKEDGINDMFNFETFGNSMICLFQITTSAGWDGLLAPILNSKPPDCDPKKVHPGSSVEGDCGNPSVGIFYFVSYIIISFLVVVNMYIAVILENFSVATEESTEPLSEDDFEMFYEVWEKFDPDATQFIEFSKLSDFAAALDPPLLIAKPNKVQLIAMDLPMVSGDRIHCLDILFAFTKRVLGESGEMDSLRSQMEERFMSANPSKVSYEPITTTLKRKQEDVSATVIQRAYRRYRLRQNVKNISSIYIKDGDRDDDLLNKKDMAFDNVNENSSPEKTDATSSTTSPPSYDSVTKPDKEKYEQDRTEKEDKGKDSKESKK

With `C#CC[C@H](NC(=O)[C@@H](N)CCC(=O)O)C(=O)N[C@H]1CSSC[C@@H]2NC(=O)[C@@H]3CSSC[C@@H](C(=O)N[C@@H](CCCNC(=N)N)C(=O)N[C@@H](CCCCN)C(=O)N[C@@H](CCC(=O)O)C(=O)N[C@H](C(N)=O)[C@@H](C)CC)NC(=O)[C@H](Cc4c[nH]c5ccc(Br)cc45)NC(=O)[C@H](CC(C)C)NC(=O)[C@H](CCCCN)NC(=O)[C@H](CSSC[C@H](NC(=O)[C@H]([C@@H](C)O)NC(=O)[C@H](Cc4c[nH]c5ccccc45)NC(=O)[C@H](CCCC)NC(=O)[C@H](Cc4c[nH]c5ccccc45)NC(=O)[C@H](CCCCN)NC(=O)[C@H](CCC(N)=O)NC1=O)C(=O)N[C@@H](CC(=O)O)C(=O)N[C@@H](CO)C(=O)N[C@@H](CCC(=O)O)C(=O)N[C@@H](CCCNC(=N)N)C(=O)N[C@@H](C)C(=O)N3)NC(=O)[C@H](CCCNC(=N)N)NC(=O)[C@H](CC(C)C)NC(=O)CNC(=O)[C@H](CCC(=O)O)NC2=O`, the IC50 in assay [1] came out at 0.0005 µM; in assay [2] it was 0.072 µM.
The corresponding values for `C#CC[C@H](NC(=O)[C@@H](N)CCC(=O)O)C(=O)N[C@H]1CSSC[C@@H]2NC(=O)[C@@H]3CSSC[C@@H](C(=O)N[C@@H](CCCNC(=N)N)C(=O)N[C@@H](CCCCN)C(=O)N[C@@H](CCC(=O)O)C(=O)N[C@H](C(N)=O)[C@@H](C)CC)NC(=O)[C@H](Cc4c[nH]c5ccc(Br)cc45)NC(=O)[C@H](CC(C)C)NC(=O)[C@H](CCCCN)NC(=O)[C@H](CSSC[C@H](NC(=O)[C@H]([C@@H](C)O)NC(=O)[C@H](Cc4c[nH]c5ccccc45)NC(=O)[C@H](CCCC)NC(=O)[C@H](Cc4c[nH]c5ccccc45)NC(=O)[C@H](CCCCN)NC(=O)[C@H](CCC(N)=O)NC1=O)C(=O)N[C@@H](CC(=O)O)C(=O)N[C@@H](CCC(=O)O)C(=O)N[C@@H](CCCCN)C(=O)N[C@@H](CCCNC(=N)N)C(=O)N[C@@H](C)C(=O)N3)NC(=O)[C@H](CCCNC(=N)N)NC(=O)[C@H](CC(C)C)NC(=O)CNC(=O)[C@H](CCC(=O)O)NC2=O` are 0.0025 µM and 0.089 µM.
The like results for `C#CC[C@H](N)C(=O)N[C@@H](Cc1ccc(O)cc1)C(=O)N[C@H]1CSSC[C@@H]2NC(=O)[C@@H]3CSSC[C@@H](C(=O)N[C@@H](CCCNC(=N)N)C(=O)N[C@@H](CCCCN)C(=O)N[C@@H](CCC(=O)O)C(=O)N[C@H](C(N)=O)[C@@H](C)CC)NC(=O)[C@H](Cc4c[nH]c5cc(Br)ccc45)NC(=O)[C@H](CC(C)C)NC(=O)[C@H](CCCCN)NC(=O)[C@H](CSSC[C@H](NC(=O)[C@H]([C@@H](C)O)NC(=O)[C@H](Cc4c[nH]c5ccccc45)NC(=O)[C@H](CCCC)NC(=O)[C@H](Cc4c[nH]c5ccccc45)NC(=O)[C@H](CCCCN)NC(=O)[C@H](CCC(N)=O)NC1=O)C(=O)N[C@@H](CC(=O)O)C(=O)N[C@@H](CO)C(=O)N[C@@H](CCCCN)C(=O)N[C@@H](CCCNC(=N)N)C(=O)N[C@@H](C)C(=O)N3)NC(=O)[C@H](CCCNC(=N)N)NC(=O)[C@H](CC(C)C)NC(=O)CNC(=O)[C@H](CCC(=O)O)NC2=O` were, in that order, 0.0089 µM and 0.039 µM.
The corresponding values for `C#CC[C@H](N)C(=O)N[C@@H](Cc1ccc(O)cc1)C(=O)N[C@H]1CSSC[C@@H]2NC(=O)[C@@H]3CSSC[C@@H](C(=O)N[C@@H](CCCNC(=N)N)C(=O)N[C@@H](CCCCN)C(=O)N[C@@H](CCC(=O)O)C(=O)N[C@H](C(N)=O)[C@@H](C)CC)NC(=O)[C@H](Cc4c[nH]c5ccc(Cl)cc45)NC(=O)[C@H](CC(C)C)NC(=O)[C@H](CCCCN)NC(=O)[C@H](CSSC[C@H](NC(=O)[C@H]([C@@H](C)O)NC(=O)[C@H](Cc4c[nH]c5ccccc45)NC(=O)[C@H](CCCC)NC(=O)[C@H](Cc4c[nH]c5ccccc45)NC(=O)[C@H](CCCCN)NC(=O)[C@H](CCC(N)=O)NC1=O)C(=O)N[C@@H](CC(=O)O)C(=O)N[C@@H](CO)C(=O)N[C@@H](CCCCN)C(=O)N[C@@H](CCCNC(=N)N)C(=O)N[C@@H](C)C(=O)N3)NC(=O)[C@H](CCCNC(=N)N)NC(=O)[C@H](CC(C)C)NC(=O)CNC(=O)[C@H](CCC(=O)O)NC2=O` are 0.0031 µM and 0.023 µM.
Regarding `C#CC[C@H](N)C(=O)N[C@@H](Cc1ccc(O)cc1)C(=O)N[C@H]1CSSC[C@@H]2NC(=O)[C@@H]3CSSC[C@@H](C(=O)N[C@@H](CCCNC(=N)N)C(=O)N[C@@H](CCCCN)C(=O)N[C@@H](CCC(=O)O)C(=O)N[C@@H](CCc4ccccc4)C(N)=O)NC(=O)[C@H](Cc4c[nH]c5ccccc45)NC(=O)[C@H](CC(C)C)NC(=O)[C@H](CCCCN)NC(=O)[C@H](CSSC[C@H](NC(=O)[C@H]([C@@H](C)O)NC(=O)[C@H](Cc4c[nH]c5ccccc45)NC(=O)[C@H](CCCC)NC(=O)[C@H](Cc4c[nH]c5ccccc45)NC(=O)[C@H](CCCCN)NC(=O)[C@H](CCC(N)=O)NC1=O)C(=O)N[C@@H](CC(=O)O)C(=O)N[C@@H](CO)C(=O)N[C@@H](CCCCN)C(=O)N[C@@H](CCCNC(=N)N)C(=O)N[C@@H](C)C(=O)N3)NC(=O)[C@H](CCCNC(=N)N)NC(=O)[C@H](CC(C)C)NC(=O)CNC(=O)[C@H](CCC(=O)O)NC2=O`, the IC50 in assay [1] came to 0.0003 µM; in assay [2], 0.023 µM.
The corresponding values for `C#CC[C@H](N)C(=O)N[C@@H](Cc1ccc(O)cc1)C(=O)N[C@H]1CSSC[C@@H]2NC(=O)[C@@H]3CSSC[C@@H](C(=O)N[C@@H](CCCNC(=N)N)C(=O)N[C@@H](CCCCN)C(=O)N[C@@H](CCC(=O)O)C(=O)N[C@H](C(N)=O)[C@@H](C)CC)NC(=O)[C@H](Cc4c[nH]c5ccccc45)NC(=O)[C@H](CC(C)C)NC(=O)[C@H](CCCCN)NC(=O)[C@H](CSSC[C@H](NC(=O)[C@H]([C@@H](C)O)NC(=O)[C@H](Cc4c[nH]c5ccccc45)NC(=O)[C@H](CCCC)NC(=O)[C@H](Cc4ccccc4)NC(=O)[C@H](CCCCN)NC(=O)[C@H](CCC(N)=O)NC1=O)C(=O)N[C@@H](CC(=O)O)C(=O)N[C@@H](CO)C(=O)N[C@@H](CCCCN)C(=O)N[C@@H](CCCNC(=N)N)C(=O)N[C@@H](C)C(=O)N3)NC(=O)[C@H](CCCNC(=N)N)NC(=O)[C@H](CC(C)C)NC(=O)CNC(=O)[C@H](CCC(=O)O)NC2=O` are 0.0013 µM and 0.052 µM.

For the origin of these results see ChEMBL document CHEMBL4152382, “Discovery of Tarantula Venom-Derived NaV1.7-Inhibitory JzTx-V Peptide 5-Br-Trp24 Analogue AM-6120 with Systemic Block of Histamine-Induced Pruritis” (J Med Chem, 2018).
